Reference: US9713605B2, “Ameliorative or preventive effect of Antrodia cinnamomea in arthritis, cartilage destruction, or chondrocyte death” (Simpson Biotech Co., Ltd., priority 2011, dated 2017)

How the values were obtained:
[1] = tested on: collagen antibody-induced arthritis (CAIA) in BALB/c mice; experiment: Footpad thickness change in acute stage of CAIA; type: in vivo; settings: day 10; oral once daily day 0 to day 9; mean±SEM; arthritis group 1.0446±0.0369
Excerpt: (§1) Male BALB/cByJNarl (BALB/c) mice were purchased at age six weeks from National Laboratory Animal Center (Taiwan) and subsequently bred and maintained under specific pathogen-free conditions in the Laboratory Animal Center of National Defense Medical Center (Taipei, Taiwan).
(§2) An arthritogenic monoclonal antibody (mAb) cocktail and lipopolysaccharide (LPS) were purchased from Immuno-Biological Laboratories (Hamburg, Germany). Arthritis was induced by the method of Terato et al. (Terato et al., Induction of arthritis with monoclonal antibodies to collagen. J Immunol. 1992 Apr. 1; 148(7):2103-8), using an arthritogenic mAb cocktail that contained four mAbs (F10, A2, D8, and D1) in equal amounts and using LPS as adjuvant. Three clones (F10, A2, and D8) were of type IgG2a, and one clone (D1) was type IgG2b. To induce arthritis, each mouse was injected intravenously with 2 mg of anti-CII mAbs followed by an intraperitoneal injection of 50 μg (BALB/c background) LPS (Escherichia coli 0111:B4) three days later. Isotype IgG (anti-mouse IgG, 2 mg, Jackson Lab.) supplied with LPS and only LPS induction groups were applied in same condition.
(§3) Arthritis development was monitored in the four limbs using a macroscopic scoring system. Briefly, one point was given for each swollen or red toe; one point for each swollen joint (metatarsal-phalangeal joints, metacarpal-phalangeal joints, proximal interphalangeal joints, and distal interphalangeal joints); and five points for a swollen ankle (maximum score=15 per limb and 60 per mouse) (Nandakumar et al., Collagen type II (CII)-specific antibodies induce arthritis in the absence of T or B cells but the arthritis progression is enhanced by CII-reactive T cells. Arthritis Res. Ther. 6 (2004), R544-R550). The mice were examined on days 0, 3, 7, 10 and 14 after the mAb injection. The thickness of each paw was measured in a noncontact manner using a Simplified Geometry Measurement System (Advanced Design Research Technology Co., Ltd). Images of the paws of each mouse were recorded three times (Chia et al., A noncontact footpad thickness assay to evaluate rheumatoid disease. Rheumatol Int. 2010 February; 30(4):547-50). One trained researcher who was blinded to group treatments evaluated the image data independently.
(§4) Data were analyzed by the Mann-Whitney U test and were expressed as mean±SEM. A P value <0.05 was considered significant.
(§5) In each group, the subjects were given the sample once daily ([…]) since day 0 to day 9 via oral intake and the subjects was administrated before the antibody and LPS injection.

[2] = tested on: collagen antibody-induced arthritis (CAIA) in BALB/c mice; experiment: Disease activity score (macroscopic scoring of four limbs) in acute stage of CAIA; type: in vivo; settings: oral once daily; for disease activity score (maximum 60 per mouse): day 10, mean±SEM, arthritis group 53.71±2.763
Excerpt: as §1, §2, §3, §4, §5

[3] = tested on: collagen antibody-induced arthritis (CAIA) in BALB/c mice; experiment: Histopathological arthritis score of ankle joints in CAIA; type: in vivo; settings: ankle joint harvested on day 10; mean±SEM; arthritis group 4.178±0.2023
Excerpt: as §2
The ankle joints were fixed in 10% formalin, decalcified, trimmed, and embedded. Sections were prepared from the tissue blocks and stained with hematoxylin and eosin. Histopathological scoring was performed as described below. Ankle joints of arthritic mice were given arthritis scores of 0, 1, 2, 3, 4, and 5 to describe the arthritis according to the following criteria: 0, normal; 1, minimal infiltration of polymorphonuclear leukocytes in the periarticular area; 2, mild infiltration; 3, moderate infiltration; 4, marked infiltration; and 5, severe infiltration (Doherty, 2001. Risk factors for progression of knee osteoarthritis. Lancet 358:775-6). Three independent observers scored each slide, and the average score was used.
as §4, §5

IL-1β = experiment: Relative expression level of IL-1β mRNA in footpad (quantitative PCR) in CAIA; type: in vivo, mice; settings: day 10, mean±SEM, arthritis group 41.13±6.465
Excerpt: as §2
Total RNA was isolated using the Trizol method. Footpad tissues were homogenized in Trizol lysis buffer followed by chloroform extraction (Life Technologies). The RNA was eluted with 20 μl of RNase-free water. All RNA was quantified by spectrophotometer, and the optical density (OD) 260/280 nm ratio was determined. For cDNA synthesis, 5 μg total RNA was reverse transcribed at 50° C. for 60 min using 200 units of Superscript III reverse transcriptase (Invitrogen). The primer sequence was as follows: IL1-β, forward primer (5′-[…]), reverse primer (5′-CTCGCAGCAGCACATCAAC); and GAPDH, forward primer (5′-[…]), reverse primer (5′-[…]). The SYBR Green master mix kit (Bio-Rad) was used for all reactions with real-time PCR. Briefly, PCR was performed as follows: 94° C. for 2 min followed by 40 cycles of denaturation; annealing; and extension at 94° C. for 15 s, 64° C. for 30 s, and 72° C. for 45 s; and final extension at 72° C. for 10 min. The PCR reaction was performed in triplicate for each sample for all the products and for the GAPDH control. Ratios for each product relative to GAPDH mRNA were calculated for each sample. The data presented are expressed as the fold-increase or fold-decrease in mRNA level. For all real-time PCR assays, the products were run out on a gel to confirm the presence of a single band.
as §4, §5

[4] = tested on: cartilage destruction in ankle joints of arthritic mice; experiment: Histopathological cartilage destruction score of ankle joints in CAIA; type: in vivo; settings: ankle joint harvested on day 10; mean±SD; arthritis group 2.063±0.776
Excerpt: as §2
The ankle joints were fixed in 10% formalin, decalcified, trimmed, and embedded. Sections were prepared from the tissue blocks and stained with hematoxylin and eosin. Histopathological scoring was performed as described below. […] Two independent observers scored each slide, and the average score was used.
(§6) Data were analyzed by the t test and are expressed as mean±SD. […]

[5] = tested on: chondrocyte death in ankle joints of arthritic mice; experiment: Histopathological chondrocyte death score of ankle joints in CAIA; type: in vivo; settings: ankle joint harvested on day 10; mean±SD; arthritis group 1.929±0.450
Excerpt: as §2, with “Isotype IgG (anti-mouse IgG, 2 mg, Jackson Lab.) supplied with LPS and only LPS induction groups were applied in same condition.” left out
Ankle joints of arthritic mice were given chondrocyte death scores of 0, 1, 2, and 3 to describe the chondrocyte death according to the following criteria: 0, normal (FIG. 7A); 1, mild chondrocyte death (around less than ⅓ chondrocyte death in cartilage of all sections, FIGS. 7B, 7C); 2, moderate chondrocyte death (between ⅓ to ⅔ area chondrocyte death in the cartilage, FIG. 7D); 3, severe chondrocyte death (more than ⅔ chondrocyte death in the cartilage, FIG. 7E). Two independent observers scored each slide, and the average score was used.
as §6

SMILES	footpad thickness (average increase compared to baseline) [1] [mm]	disease activity score, difference versus arthritis group ([2]; day 7)	disease activity score (maximum 60 per mouse) [2]	arthritis score (histopathological, 0-5) [3]	relative expression levels of IL-1β (relative to GAPDH mRNA) (IL-1β)	cartilage destruction score (0-3) [4]	chondrocyte death score (0-3) [5]
CC(C)=CCOc1ccc([C@H]2C(=O)N(O)C(=O)[C@@H]2CC(C)C)cc1 (relative stereo) [D group, 3R*,4S*-1-hydroxy-3-isobutyl-4-[4-(3-methyl-2-butenyloxy)phenyl]pyrrolidine-2,5-dione]	0.729±0.114	significant difference	39.687±5.238	3.458±0.559	10.141±2.765	1.167±0.144	1.042±0.439
CC(C)=CCOc1ccc(C2=C(CC(C)C)C(=O)OC2=O)cc1 [A group, 3-isobutyl-4-[4-(3-methyl-2-butenyloxy)phenyl]furan-2,5-dione]	0.840±0.139	–	46.0±2.537	2.093±0.541	39.61±3.849	–	–
CC(C)=CCOc1ccc(C2=C(CC(C)C)C(=O)NC2=O)cc1 [B group, 3-isobutyl-4-[4-(3-methyl-2-butenyloxy)phenyl]-1H-pyrrol-2,5-dione]	0.837±0.177	–	45.58±4.818	–	16.873±4.82	–	–
CC(C)=CCOc1ccc(C2=C(CC(C)C)C(=O)N(O)C2=O)cc1 [C group, 3-isobutyl-4-[4-(3-methyl-2-butenyloxy)phenyl]-1H-pyrrol-1-ol-2,5-dione]	0.8605±0.098	–	47.718±3.581	3.25±0.421	20.714±4.751	1.000±0.467	0.58±0.555
